Patent US9266834B2, “1, 4-disubstituted 3-cyano-pyridone derivatives and their use as positive allosteric modulators of MGLUR2-receptors” (JANSSEN PHARMACEUTICALS, INC., priority 2006, dated 2016)

Experiments:
[1] = biological target: T1, human mGluR2 receptor (Homo sapiens, UniProt Q14416); assay: [35S]GTPγS binding assay (GTPγS-PAM): positive allosteric modulation in presence of glutamate at EC25, membranes from transfected CHO cells; type: biochemical; settings: in presence of mGluR2 agonist glutamate at predetermined EC25 concentration, averages of duplicate values of 11-concentration response curves, read-out: GTPgS - hR2 PAM pEC50 (converted)
T1 construct: expressed in transfected cells; host or cells: CHO cells (membrane preparation)
Summary of the method: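 Membranes came from butyrate-stimulated CHO cells expressing human mGluR2, used at 15 μg/well in HEPES pH 7.4 with 100 mM NaCl, 3 mM MgCl2, 50 μM GDP and saponin. Compound (0.3 nM-50 μM, 11 concentrations) plus glutamate at EC25 was preincubated 30 min at 30° C., then 0.1 nM [35S]GTPγS was added for 30 min. Filter-bound radioactivity was counted, nonspecific binding was taken with 10 μM GTP, and curves were fitted by four-parameter logistic.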

T1 sequence (Q14416 19-872): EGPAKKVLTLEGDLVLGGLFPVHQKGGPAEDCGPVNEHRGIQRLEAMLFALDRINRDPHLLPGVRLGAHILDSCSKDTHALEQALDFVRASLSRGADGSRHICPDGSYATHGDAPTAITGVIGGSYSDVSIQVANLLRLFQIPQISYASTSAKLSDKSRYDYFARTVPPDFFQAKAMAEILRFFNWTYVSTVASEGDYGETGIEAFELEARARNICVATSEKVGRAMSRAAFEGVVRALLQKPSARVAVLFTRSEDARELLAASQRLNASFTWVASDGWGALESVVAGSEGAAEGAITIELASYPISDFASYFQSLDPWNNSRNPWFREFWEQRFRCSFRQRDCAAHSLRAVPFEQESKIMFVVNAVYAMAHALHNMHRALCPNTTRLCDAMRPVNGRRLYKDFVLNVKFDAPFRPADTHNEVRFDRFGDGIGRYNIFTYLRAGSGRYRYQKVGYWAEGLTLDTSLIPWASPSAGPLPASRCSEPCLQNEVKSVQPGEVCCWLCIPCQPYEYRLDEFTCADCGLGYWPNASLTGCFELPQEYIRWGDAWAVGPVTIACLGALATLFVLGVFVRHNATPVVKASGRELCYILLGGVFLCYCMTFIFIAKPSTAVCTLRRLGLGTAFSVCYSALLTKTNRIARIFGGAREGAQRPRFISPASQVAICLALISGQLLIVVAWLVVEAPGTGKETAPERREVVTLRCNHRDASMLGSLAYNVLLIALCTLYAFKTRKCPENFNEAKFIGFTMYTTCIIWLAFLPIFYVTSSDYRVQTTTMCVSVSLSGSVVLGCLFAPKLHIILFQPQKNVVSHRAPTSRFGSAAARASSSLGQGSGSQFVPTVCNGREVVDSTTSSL

SMILES | EC50 [1] [µM] | melting point [°C]
CSc1ccc(-c2ccn(CCC(C)C)c(=O)c2C#N)cc1 [1-256] | 0.158 | 128
COc1ccc(CCc2ccn(CCC(C)C)c(=O)c2C#N)cc1 [1-265] | 1.26 | 88
CC(C)CCn1ccc(C#Cc2ccc(N(C)C)cc2)c(C#N)c1=O [1-270] | 0.1 | 166
CC(C)CCn1ccc(OCc2ccccc2)c(C#N)c1=O [1-275] | 1.26 | 174
CC(C)CCn1ccc(OCc2cccc(OC(F)(F)F)c2)c(C#N)c1=O [1-279] | 0.398 | 116
COc1ccc(Oc2ccn(CCC(C)C)c(=O)c2C#N)cc1 [1-282] | 0.794 | 153
CC(C)CCn1ccc(OCc2ccc(OC(F)F)cc2)c(C#N)c1=O [1-284] | 0.631 | 190
CC(C)CCn1ccc(OC2Cc3ccccc3C2)c(C#N)c1=O [1-288] | 1 | 169
CCOC(=O)c1ccc(-c2cccc(COc3ccn(CCC(C)C)c(=O)c3C#N)c2)cc1 [1-290] | 0.158 | 148
CC(C)CCn1ccc(OCc2ccc(CN3CCOCC3)cc2)c(C#N)c1=O [1-292] | 1.26 | 154
CC(C)CCn1ccc(OCCN(C)Cc2cccc(F)c2)c(C#N)c1=O [1-293] | 2.51 | 209
CCCCn1ccc(Nc2ccc(Oc3cccnc3)cc2)c(C#N)c1=O [1-296] | 1.58 | 151
CCCCn1ccc(N2CCN(Cc3cc(F)cc(C(F)(F)F)c3)CC2)c(C#N)c1=O [2-001] | 3.16 | 183
CCCCn1ccc(N2CCN(Cc3ccc(OC(F)(F)F)c(Cl)c3)CC2)c(C#N)c1=O [2-002] | 0.316 | 127
CCCCn1ccc(N2CCN(Cc3ccc(OCC4CC4)c(Cl)c3)CC2)c(C#N)c1=O [2-003] | 0.158 | 134
CC(C)Cn1ccc(N2CCN(Cc3ccc(OC(F)(F)F)c(Cl)c3)CC2)c(C#N)c1=O [2-010] | 1 | 112
CC(C)CCn1ccc(N2CCN(Cc3ccc(OC(F)(F)F)c(Cl)c3)CC2)c(C#N)c1=O [2-022] | 0.158 | 256
CC(C)CCn1ccc(N2CCN(c3ncccc3C(F)(F)F)CC2)c(C#N)c1=O [2-026] | 0.2 | 135
CC(C)CCn1ccc(N2CCN(c3nccc(C(F)(F)F)n3)CC2)c(C#N)c1=O [2-029] | 0.251 | 155
CC(C)CCn1ccc(N2CCN(c3nc4ccccc4o3)CC2)c(C#N)c1=O [2-035] | 1 | 288
CC(C)CCn1ccc(C(=O)N2CCN(c3ncccn3)CC2)c(C#N)c1=O [2-037] | 1 | 223
N#Cc1c(N2CCN(Cc3cc(F)cc(C(F)(F)F)c3)CC2)ccn(CC2CC2)c1=O [2-038] | 5.01 | 140
N#Cc1c(N2CCN(Cc3ccc(OC(F)(F)F)c(Cl)c3)CC2)ccn(CC2CC2)c1=O [2-039] | 0.794 | 125
N#Cc1c(N2CCN(Cc3ccc(OCC4CC4)c(Cl)c3)CC2)ccn(CC2CC2)c1=O [2-040] | 0.501 | 157
N#Cc1c(N2CCN(CCc3ccccc3)CC2)ccn(Cc2ccc(OC(F)(F)F)cc2)c1=O [2-043] | 0.251 | 110
